The source of these data is a melting point compilation (Tetko et al.; mined from patent text by program, amines drawn as free bases though some values may be those of a salt).

In general, melting point refers to the temperature, or range, at which the solid turns liquid.

Compound `O=[N+]([O-])c1ccc(Oc2c(Cl)cc(S(=O)(=O)NC(=NO)Nc3ccc(Cl)cc3)cc2Cl)cc1` showed a melting point of 212 °C.
Take `CN1Cc2cncn2-c2ccc(F)c(Cl)c2C1=O`: the melting point lay within 234 to 235 °C.
`COc1ccc(CN2CCN(CCC(c3ccccc3)c3ccccc3)CC2)cc1OC` displayed a melting point of 98 to 104 °C.
As to `CCC1CCCCN1C(=O)c1cc2ccccc2c(-c2ccccc2)n1` (stereo not given), the melting point was determined as 86 °C.
Take `C=C1CC2C3CCC4=CC(=O)C=CC4(C)C3=CCC2(C)C1=O` (stereo not given): the melting point lay within 157 to 160 °C.
`CC(=NOCCCOc1ccc(CC(=O)O)cc1)c1ccc(C(C)(C)C)cc1` came in with a melting point of 98.7 to 99.7 °C.
The compound `O=c1c2ccccc2[nH]c2c1cnn2-c1ccccn1` showed a melting point of 240 to 242 °C.
Consider `CNS(=O)(=O)c1cccc(NC(=O)c2cnn3c(C(F)F)cc(-c4ccc(C(F)(F)F)cc4)nc23)c1`, for which the melting point stood at 255 °C.
The compound `O=C(Oc1cc(OC(=O)c2cc(O)cc(O)c2)c2ccccc2c1)c1cc(O)cc(O)c1` showed a melting point of 167 to 169 °C.
The compound `C=CCOc1ccc(C(=O)O)cc1` returned a melting point of 163 to 164 °C.
As for `CN(C(=O)C(C)(C)c1cc(C(C)(C)C)c(O)c(C(C)(C)C)c1)C1CC(C)(C)NC(C)(C)C1`, the figure is 168 to 173 °C; as for `Fc1ccc(N2CCN(CCCc3[nH]nc4c3CSCC4)CC2)cc1`, 110 to 111 °C; as for `CN1C(=O)C=C(c2c[nH]c3ncccc23)C1=O`, over 250 °C.
To `CC1(CN2CCC(C(=O)c3ccc(OC(F)(F)F)cc3)CC2)Cn2cc([N+](=O)[O-])nc2O1` (stereo not given) belongs 113 to 115 °C; to `O=C(O)c1ccc(NCc2cc(Cl)c(Cl)s2)cc1`, 225 to 227 °C; to `OCCC1(c2ccccn2)CCNC1` (stereo not given), 50 to 55 °C.
Regarding `Clc1ccc([Si](Cl)(Cl)Cl)cc1`, the melting point was in the range of 60 to 61 °C.
Consider `CCC(=O)Nc1c(C#N)cnn1-c1c(Cl)cc(SC(F)(F)F)cc1Cl`, for which the melting point lay in the range of 153 to 156 °C.
In the case of `CN1C(=O)CCC2(C)C1=CCc1cc(F)ccc12` (stereo not given), the melting point lay in the range of 110 to 111 °C.
In turn, `C#CC(C)(C)OC(C)Oc1ccc(NC(=O)N(C)C)cc1Cl` (stereo not given) showed a melting point of 99 to 101 °C.
With `Cc1ccc2c(c1)S(=O)(=O)CC(COC(=O)Nc1ccccc1)(COC(=O)Nc1ccccc1)C2=O`, the melting point lay in the range of 85 to 95 °C.
To `COc1cc(C)nc(Nc2ccccc2)n1` belongs 75 to 76 °C; to `Cc1oc(-c2ccccc2)nc1CCOc1ccc(C=CC=C2OC(=O)NC2=O)cn1`, 204 to 205 °C.
To `COC(=O)C#CC(=O)c1ccc(C)cc1` belongs 44 to 47 °C.
In the case of `CCOC(=O)C(=O)c1cn(CC)c2cc(-c3ccc(OC(F)(F)F)cc3)ccc12`, the melting point lay in the range of 114 to 116 °C.
To `COC(=O)CCCOc1cc([N+](=O)[O-])c(C=O)cc1OC` belongs 75 °C; to `CC(Cc1nc(-c2ccccc2)nc2ccccc12)C(=O)O` (stereo not given), 180 °C.
The compound `CCOC(=O)C1=C(C)NC(=S)N(C(=O)OCC)C1c1cccc(OCc2ccccc2)c1` (stereo not given) showed a melting point of 119 to 121 °C.
`CC(C)CC(C(=O)O)c1cc(OCC2CC2)c(-c2ccc3nonc3c2)cc1F` (stereo not given) had a melting point of 110 to 111 °C.
`Cc1c(CNc2cccc(N)n2)c(C)c(CNc2cccc(N)n2)c(C)c1CNc1cccc(N)n1` displayed a melting point of 130 to 132 °C.
In turn, `COc1c(C2CCN(CCCCNC(=O)c3sc(-c4ccc(C#N)cc4)nc3C)CC2)ccc2c1CCCC2` came in with a melting point of 160 to 164 °C.
To `Cc1ccc(N)c(C#Cc2ccccc2)n1` belongs 154 to 155 °C.
Consider `CC(C)(C)C(NC(=O)c1ccc(Cl)cc1)NC(=NC#N)Nc1cccc(C(F)(F)F)c1` (stereo not given), for which the melting point was in the range of 184 to 186 °C.
`Cc1cc(Cc2ccc(O)cc2)n(C)c1C(=O)c1ccc(Cl)cc1` yielded a melting point of 183 to 185 °C.
Consider `COC(=O)/C=C/c1cc(C)cc(NC(C)=O)n1`, for which the melting point amounted to 139 °C.
